Experimental data published in US7855076B2, “Use of discoidin domain receptor 1 (DDR1) and agents that affect the DDR1/collagen pathway” (The United States of America as represented by the …, priority 2002, dated 2010).

What was measured:
[1] = test system: monocyte-derived dendritic cells; assay: Flow cytometry of CD80, CD83, CD86, HLA-DR on monocyte-derived DCs; type: cell-based, human
Procedure: Human PBMC were isolated from leukapheresis preparations obtained by the Blood Bank, Clinical Center, National Institutes of Health (Bethesda, Md.). The leukocyte-rich preparation was overlaid on Accu-prep in 50 ml tubes and the tubes were centrifuged at 800×g for 20 min at room temperature. PBMC fractions were collected, washed once with PBS at room temperature and twice with complete medium at 4° C. and resuspended in the same medium. Monocytes were further purified by using iso-osmotic Percoll gradient. At this stage, the purity of monocytes was higher than 90%. The cells (5×10^5/ml) were allowed to adhere to the surface of 6-well plates. After a 5 hour incubation at 37° C., non-adherent cells were removed, and remaining adherent cells were subjected to the DC (Baggiolini et al., Adv. Immunol. 55:97-179, 1993). Over 95% of the adherent cells were positive for CD14 by flow cytometry analysis. Monocytes were briefly resuspended at a concentration of 1×10^6 cells/ml and cultured in complete medium containing 50 ng/ml GM-CSF and 50 ng/ml IL-4. Cells were cultured for 7 days, with cytokine added every second day, to obtain a population of immature monocyte-derived dendritic cells (DC). For maturation, immature DC (iDC) were treated with TNF-α (50 ng/ml) from day 5 to day 7. Mouse monoclonal anti-DDR1 antibody (513) (5 μg/ml) was used to specifically activate DDR1. Unrelated mouse monoclonal IgM was used as a control.
Monocytes were plated at a density of 5×10^6 cell/ml and incubated for 5 days in the presence of 50 ng/ml GM-CSF and 50 ng/ml IL-4. Cells were cultured for 7 days, with cytokine added every second day, to obtain a population of immature monocyte-derived DCs. For maturation, iDCs were incubated with TNF-α (50 ng/ml) from day 5 to day 7. For activation of DDR1 on DCs, the cells were incubated in the presence of either agonistic anti-DDR1 IgM (513) or control IgM, and the expression of CD80, CD83, CD86, and HLA-DR was measured using a flow cytometer.
A hundred thousand cells were resuspended in 50 μl of cold PBS containing 0.1% sodium azide, […] bovine serum albumin (BSA) and 200 μg/ml of human IgG, and then incubated for 10 minutes on ice. Subsequently, the cells were incubated with antibodies against CD80, CD83, CD86 or HLA-DR for 15 minutes on ice, and followed by washing with PBS. After washing, cells were incubated with FITC-conjugated goat anti-mouse IgG for 15 minutes on ice. At the end of the incubation, PI was added to 100 μM. Cells were washed by PBS, and subsequently analyzed on a FACscan (Becton Dickinson). Dead cells, determined by their PI-staining, were gated out. Results were processed using CellQuest software (Becton Dickinson). For the experiments of p38 MAP kinase inhibition, iDC were pre-treated with SB203580, or DMSO for 30 minutes, and then cultured with TNF-α alone, TNF-α plus 513 agonistic anti-DDR1 IgM (5 μg/ml), or TNF-α plus control IgM (5 μg/ml). These experiments were repeated with cells from three different donors.

THP-1 cells = assay: Cytokine and chemokine release from PMA-treated THP-1 cells by ELISA; type: cell-based, human
Procedure: The production of DDR1a- or 1b-overexpressing THP-1 cells was previously described (Kamohara et al., FASEB J. 15:2724, 2001). Briefly, the human monocytic leukemic cell line, THP-1, was transduced with control retrovirus containing the vector only (mock-transduced) or retrovirus expressing DDR1a or DDR1b. THP-1 cells transduced by each virus were selected with G418, and cloned by limiting dilution. The cloned THP-1 cells were maintained in RPMI 1640 medium supplemented with 100 μg/ml gentamycin and 10% FCS (complete medium). Cells were plated at 1×10^6/ml and treated with PMA (10 nM) for variable times on uncoated or collagen-coated tissue culture plates for quantification of cytokine or chemokine release.
In addition, the concentration of MCP-1 in the culture supernatant of each cell line was measured by ELISA. The concentration of MCP-1 was measured in the Lymphokine Testing Laboratory, Clinical Services Program, SAIC-Frederick (Frederick, Md.) by using an enzyme-linked immunosorbent assay (ELISA) kit (R&D Systems, Minneapolis, Minn.) specific for the chemokine.
In addition, the concentrations of IL-1β, IL-8, and MIP-1α in the culture supernatants of each cell line were quantified by ELISA (FIG. 6). The concentration of IL-1β, IL-8, and MIP-1α were measured in the Lymphokine Testing Laboratory, Clinical Services Program, SAIC-Frederick (Frederick, Md.) by using enzyme-linked immunosorbent assay (ELISA) kits (R&D Systems, Minneapolis, Minn.) specific for each human cytokine and chemokine. […]

[2] = DC maturation induced with TNF-α 50 ng/ml
[3] = iDC pre-treated, TNF-α-induced maturation with agonistic anti-DDR1 IgM or control IgM
[4] = DDR1b-overexpressing THP-1 cells, PMA, collagen-coated plates, 48 hours

TNF-α was tested, and the “expression of CD80” value [1, 2] was “up-regulated”, the “expression of CD83” value [1, 2] was “up-regulated” and the “expression of CD86” value [1, 2] was “up-regulated”. The “expression of HLA-DR” value [1, 2] was “up-regulated”.

collagen was tested, and the “increase of MCP-1 released on collagen-coated plates” value (THP-1 cells; PMA-treated DDR1b-overexpressing cells) was “approximately 7 fold”.

`C[S+]([O-])c1ccc(-c2nc(-c3ccncc3)c(-c3ccc(F)cc3)[nH]2)cc1` (stereo not shown) [SB203580] was tested, and the “expression of CD80” value [1, 3] was “almost completely inhibited”, the “expression of CD83” value [1, 3] was “almost completely inhibited” and the “expression of CD86” value [1, 3] was “almost completely inhibited”. The “expression of HLA-DR” value [1, 3] was “almost completely inhibited”, the “collagen-induced up-regulation of IL-1β release” value (THP-1 cells; [4]) was “inhibited” and the “collagen-induced up-regulation of IL-8 release” value (THP-1 cells; [4]) was “inhibited”. For the same compound, the “collagen-induced up-regulation of MCP-1 release” value (THP-1 cells; [4]) was “inhibited” and the “collagen-induced up-regulation of MIP-1α release” value (THP-1 cells; [4]) was “inhibited”.
